# Entries after “also recorded” stand apart in the source; their conditions may differ. The star is where a group is joined. X1 = 4‑(N,N-Bis(2-pyridylmethyl)aminomethyl)benzoyl, O=C(c1ccc(CN(Cc2ccccn2)Cc2ccccn2)cc1)*; 4‑(guanidinomethyl)benzoyl = N=C(N)NCc1ccc(C(=O)*)cc1
# Key:
# [1] = tested on: Panc-1 cells; assay: Cell proliferation assay, Panc-1; format: cell-based; details: for proliferation activity (cell growth): Panc-1 with KiSS-1 short derivatives, FIG. 7A
# Description: (§1) Pancreatic cancer cell lines AsPC-1, BxPC-3, Capan-2, CFPAC-1, Panc-1 and Suit-2 were purchased from the American Type Culture Collection. Cells were cultured as monolayers in the appropriate medium supplemented with 10% fetal bovine serum, 100 units/ml penicillin, and 100 μg/ml streptomycin at 37° C., in a humid atmosphere of 5% CO2/95% air. As for AsPC-1 and Panc-1, upon reaching 80% confluence, the medium was removed, the cells were washed in phosphate-buffered saline (PBS) and treated with increasing doses of metastin (Takeda Chemical Industries, Osaka, Japan) with 10% fetal bovine serum and protein was isolated 15 minutes later as described below.
# (§2) For assaying proliferation, AsPC-1 and Panc-1 cells (1×10^4cells/3 cm diameter dish) were seeded in 10% FBS medium and incubated with increasing doses of metastin for 48 and 96 hours. Cells were trypsinized and cell numbers were counted using hematocytometer.
# [2] = tested on: Panc-1 cells; assay: Cell migration assay, Panc-1; format: cell-based; details: for migration index: Panc-1 with KiSS-1 short derivatives, FIG. 7B
# Description: (§3) A polyvinylpyrrolidone-free polycarbonate framed filter (8 μm pores) was set in a microchemotasis chamber (Corning Coster Corp., Cambridge, Mass.). Cells (2×10^6 cells in 200 μl RPMI1640 for AsPC-1 and in 200 μl DMEM for Panc-1) and peptide were added to the upper chamber and incubated at 37° C. for 12 hours to allow migration to the lower chamber, which contained 10% FBS/RPMI1640 for AsPC-1 or 5% FBS/DMEM for Panc-1 as a chemoattractant. After removing nonmigrating cells with a cotton swab from the upper surface of the membrane, cells on the lower surface were fixed, stained with Diff-Quick (International Reagent, Kobe, Japan). For quantification, cells were counted under a microscope in five predetermined fields at X200.
# [3] = tested on: ERK1/2, p38 and JNK1/2 in Panc-1 cells; assay: MAPK activation by Western blot, Panc-1; format: cell-based; details: 15 minutes, immunoblot, FIG. 5, FIG. 7C
# Description: as §1
# Cells were collected into microtubes with a cell scraper and lysed for 60 min in phosphorylation-inhibitory RIPA buffer containing 50 mM HEPES (pH 7.0), 250 mM NaCl, 0.1% Nonidet P-40, 1 mM phenylmethylsulfonyl fluoride (PMSF) and 20 μg /ml gabexate mesilate, then the lysate was sonicated for 10 sec. Total extracts were cleaned by centrifugation at 12,000 rpm for 10 min at 4° C., the supernatants were collected. Protein concentrations were measured using a protein assay kit (Tonein-TP, Otsuka Pharmaceutical, Tokyo, Japan). The lysates were resuspended in one volume of the gel loading buffer which contained 50 mM Tris-HCl (pH 6.7), 4% SDS, 0.02% bromophenol blue, 20% glycerol and 4% 2-mercaptoethanol, and then boiled at 95° C. for 90 sec. The extracted protein was subjected to Western blotting, as previously described (Wada, M. et al., Pancreas. 15: 176-82., 1997). In brief, 30 μg aliquots of protein was size-fractionated to a single dimension by SDS-PAGE (12% gels) and transblotted to a 0.45 μm polyvinylidene difluoride membrane (Bio-Rad, Richmond, Calif.) in a semidry electroblot apparatus (Bio-Rad, Richmond, Calif.). The blots were, then washed three times with TBST buffer and incubated for two hours at RT in the first antibody solution containing anti-phosphoERK antibody (#pTEpY, Promega, Madison, Wis.), anti-phosphop38 MAPK (#pTGpY, Promega, Madison, Wis.) or anti-phosphoJNK(#pTPpY, Promega, Madison, Wis.), 0.2% I-block (Promega, Madison, Wis.). After three washings in TBST buffer, the blots were incubated for one hour at RT with horseradish peroxidase conjugated anti-rabbit IgG at a 1:2000 dilution with TBST buffer. After three washings in TBST buffer, membranes were treated with enhanced chemiluminescence reagents (Amersham Life Sciences, Amersham, UK) according to the manufacturer's protocol. Membranes were exposed to X-ray film for 5-60 seconds. Protein expression was measured by ATTO densito-analyzer system AE-6920M (ATTO Corporation, Tokyo Japan) and the quantity was expressed numerically. The quantity of the target protein was divided by that of beta actin and relative intensities were obtained.
# To evaluate the signaling pathways activated by endogenous metastin receptors in pancreatic cancer, activation of MAPK was examined by treatment with metastin. Cells in exponential stage were incubated in serum containing medium and then transferred to the 1% BSA medium with metastin, as in the case of migration or invasion assay. After incubation with increasing dose of metastin (0 μM, 0.1 μM, 1 μM, 10 μM) for 15 minutes, activation of ERK1/2, p38 and JNK1/2 were measured by immunoblot (FIG. 5A).
# [4] = tested on: hOT7T175 transfected B16-BL6 melanomas; details: hOT7T175 transfected B16-BL6 melanomas in vivo; Ohtaki et al.; cited from earlier work
# [5] = tested on: AsPC-1 cells; assay: Cell migration assay, AsPC-1; format: cell-based; details: metastin 0 μM, 100 μM, 1 μM, 10 μM for 12 hours, FIG. 4A
# Description: as §3
# [6] = tested on: Panc-1 cells; assay: Matrigel invasion assay, Panc-1; format: cell-based; details: 10 μM metastin, 12 hours, FIG. 4B
# Description: (§4) Cells and peptide (2×10^6 cells in 200 μl RPMI1640 for AsPC-1 and in 200 μl DMEM for Panc-1) were added to a Matrigel-coated Transwell(8 μm pores,. Becton Dickinson Labware, Bedford, Mass.) and incubated at 37° C. for 12 hours versus a lower chamber containing 10% FBS/RPMI1640 for AsPC-1 or 5% FBS/DMEM for Panc-1. After removing the Matrigel and cells from the upper surface of the membrane, cells on the lower surface were fixed, stained with Diff-Quick and quantified the number as well. Invasion index was defined as the number of invasion cells per that of migrating cells.
# [7] = tested on: hOT7T175 transfected Chinese hamster ovary (CHO) cells; details: hOT7T175 transfected CHO cells in vitro; Hori et al., Kotani et al.; cited from earlier work
# [8] = tested on: AsPC-1 cells; assay: Matrigel invasion assay, AsPC-1; format: cell-based; details: 10 μM metastin, 12 hours, FIG. 4B
# Description: as §4
# [9] = tested on: AsPC-1 cells; assay: Cell proliferation assay, AsPC-1; format: cell-based; details: metastin 0, 100 μM, 1 μM and 10 μM for 48 hours and 96 hours, FIG. 3
# Description: as §1, §2
# [10] = tested on: ERK1/2, p38 and JNK1/2 in AsPC-1 cells; assay: MAPK activation by Western blot, AsPC-1; format: cell-based; details: 0-10 μM for 15 minutes, immunoblot
# Description: as §1
# Cells were collected into microtubes with a cell scraper and lysed for 60 min in phosphorylation-inhibitory RIPA buffer containing 50 mM HEPES (pH 7.0), 250 mM NaCl, 0.1% Nonidet P-40, 1 mM phenylmethylsulfonyl fluoride (PMSF) and 20 μg /ml gabexate mesilate, then the lysate was sonicated for 10 sec. […] Protein concentrations were measured using a protein assay kit (Tonein-TP, Otsuka Pharmaceutical, Tokyo, Japan). […] Protein expression was measured by ATTO densito-analyzer system AE-6920M (ATTO Corporation, Tokyo Japan) and the quantity was expressed numerically. The quantity of the target protein was divided by that of beta actin and relative intensities were obtained. […]
Substance,proliferation activity (cell growth) [1],migration index [2],activation of ERK1 (pERK1) [3],activation of JNK1/2 (pJNKs) [3],activation of p38 (pp38) [3],pulmonary metastasis [4],"cell growth ([1]; Panc-1, metastin 0, 100 μM, 1 μM and 10 μM for 48 hours and 96 hours, FIG. 3)",migratory activity [5],"reduction of migratory activity ([2]; Panc-1, metastin 0 μM, 100 μM, 1 μM, 10 μM for 12 hours, p<0.01, FIG. 4A)",invasion activity (invasion index) [6],chemotaxis and invasion [7],invasion activity (invasion index) [8],cell growth [9],activation of ERK1 (pERK1) [10],activation of JNK1/2 (pJNKs) [10]
4-(guanidinomethyl) benzoyl-Phe-Gly-Leu-Arg-Trp-NH2 ({4‑(guanidinomethyl)benzoyl}-FGLRW-NH2) [FM053a],cell growth was not affected,reduced the migration index; also recorded: less suppressive than FM052a,less activation of pERK1 than FM052a,not augmented,slightly activated,,,,,,,,,,
metastin: 54 amino acid peptide with C-terminal amidation processed from KiSS-1; ligand of receptor hOT7T175 (AXOR12),,,pERK1 was augmented,no reduction or increase of pJNKs,Slight activation of p38,attenuates pulmonary metastasis,Neither AsPC-1 nor Panc-1 showed growth retardation,little influenced,up to 40%,Invasion activity was not influenced,inhibit chemotaxis and invasion,Invasion activity was not influenced,Neither AsPC-1 nor Panc-1 showed growth retardation,pERK1 was augmented,no reduction or increase of pJNKs
"4-[N,N-Bis(2 -pyridylmethyl)aminomethyl]benzoyl-Phe-Gly-Leu-Arg-Trp-NH2 (X1-FGLRW-NH2) [FM052a]",cell growth was not affected,reduced the migration index; also recorded: nearly same activity with metastin,ERK1 activation was observed,not augmented,slightly activated,,,,,,,,,,
